This is an account of results in PubChem BioAssay (NCI).

Molecules are shown by their SMILES.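 Cultured in 96-well plates, cells were exposed to test compound for 48 hours across five concentrations. GI50: concentration for 50% inhibition of growth. TGI: total growth inhibition.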 Bounds are passed on as bounds.

Among the test systems are SK-MEL-28 melanoma; PC-3 prostate; NCI-H522 lung; NCI-H23 lung; HL-60(TB) leukemia; SNB-75 CNS; MDA-MB-231 breast; CCRF-CEM leukemia; HOP-62 NSCLC; HT29 colon.
Holding throughout (experiment): inhibition of tumour cell growth, NCI panel, 48 h

For `COC(=O)C(CCC(=O)CCl)N1C(=O)c2ccccc2C1=O` (stereo not drawn), the TGI in the assay on SK-MEL-28 melanoma was found to be 23.5 µM; in the assay with PC-3 prostate it was 26.5 µM; in the assay with NCI-H522 lung, 4.06 µM; with NCI-H23 lung, 22.8 µM; with HL-60(TB) leukemia it was 5.71 µM; in the assay on SNB-75 CNS it was 29.3 µM. In addition, the TGI is 28.7 µM with MDA-MB-231 breast, 6.34 µM in the assay on CCRF-CEM leukemia, 29 µM in the assay on HOP-62 NSCLC and 27.6 µM in the assay with HT29 colon.

For the molecule `O=C(Nc1ccc(-n2ccc3c(NC(=O)c4ccccc4)ncnc32)cc1)c1cccc(C(F)(F)F)c1`, the GI50 in the assay on SK-MEL-28 melanoma was 10.6 µM; with PC-3 prostate, 3.3 µM; in the assay with NCI-H522 lung it was 1.87 µM; in the assay with NCI-H23 lung it was 13.3 µM; in the assay on HL-60(TB) leukemia, 3.02 µM; in the assay with SNB-75 CNS, 3.58 µM. Besides, the GI50 with MDA-MB-231 breast was 2.76 µM; in the assay with CCRF-CEM leukemia, 0.346 µM; with HOP-62 NSCLC, 10.9 µM; in the assay with HT29 colon, 0.457 µM. Also, the TGI stood at 24.9 µM in the assay with SK-MEL-28 melanoma; 34 µM in the assay with PC-3 prostate; 20.6 µM with NCI-H522 lung; 35.7 µM in the assay with NCI-H23 lung; 36.7 µM with HL-60(TB) leukemia; 22.3 µM in the assay on SNB-75 CNS. Moreover, the TGI is 23 µM in the assay on MDA-MB-231 breast, 25.2 µM in the assay with CCRF-CEM leukemia, 24.4 µM with HOP-62 NSCLC and 15.7 µM with HT29 colon.

Regarding `CC(C)c1nc(N(C)S(C)(=O)=O)nc(-c2ccc(F)cc2)c1/C=C/[C@@H](O)C[C@@H](O)CC(=O)O`, the GI50 in the assay on SK-MEL-28 melanoma is above 100 µM; in the assay on PC-3 prostate it was 41.7 µM; in the assay with NCI-H522 lung, 21.5 µM; with NCI-H23 lung, above 100 µM; in the assay with HL-60(TB) leukemia it was above 100 µM; with SNB-75 CNS, 18.5 µM. In addition, the GI50 is 4.81 µM in the assay on MDA-MB-231 breast, above 100 µM in the assay on CCRF-CEM leukemia, above 100 µM in the assay on HOP-62 NSCLC and above 100 µM with HT29 colon. Besides, the TGI was above 100 µM with SK-MEL-28 melanoma; above 100 µM with PC-3 prostate; above 100 µM with NCI-H522 lung; above 100 µM with NCI-H23 lung; above 100 µM with HL-60(TB) leukemia; above 77.5 µM in the assay with SNB-75 CNS. Further, the TGI in the assay with MDA-MB-231 breast was 42 µM; in the assay with CCRF-CEM leukemia, above 100 µM; with HOP-62 NSCLC, above 100 µM; with HT29 colon it was above 100 µM.

With `Cc1ccc2nc(-c3ccc(OCC(=O)N=Nc4c(O)[nH]c5ccccc45)cc3)[nH]c2c1`, the GI50 in the assay with SK-MEL-28 melanoma was 2.61 µM; in the assay on PC-3 prostate, 1.74 µM; with NCI-H522 lung, 2 µM; with NCI-H23 lung, 3.53 µM; in the assay with HL-60(TB) leukemia it was 9.8 µM; in the assay on SNB-75 CNS, 13 µM. Moreover, the GI50 in the assay with MDA-MB-231 breast is 1.83 µM; with CCRF-CEM leukemia it was 1.93 µM; in the assay with HOP-62 NSCLC it was 19 µM; in the assay with HT29 colon it was 2.43 µM. Besides, the TGI in the assay on SK-MEL-28 melanoma is 7 µM; with PC-3 prostate, 3.65 µM; in the assay with NCI-H522 lung it was 5.09 µM; in the assay with NCI-H23 lung, 14.5 µM; with HL-60(TB) leukemia, 35.9 µM; in the assay with SNB-75 CNS, 38.5 µM. Further, the TGI is 3.93 µM with MDA-MB-231 breast, 11.3 µM in the assay on CCRF-CEM leukemia, 45.4 µM in the assay on HOP-62 NSCLC and 6.27 µM in the assay with HT29 colon.

For the molecule `[O-][N+]1(CC[N+]2([O-])CCCCC2)CCCCC1`, the TGI with SK-MEL-28 melanoma, with PC-3 prostate, with NCI-H522 lung, in the assay on NCI-H23 lung, with HL-60(TB) leukemia and in the assay on SNB-75 CNS was above 100 µM each time. Besides, the TGI in the assay with MDA-MB-231 breast, in the assay on CCRF-CEM leukemia, with HOP-62 NSCLC and in the assay with HT29 colon was above 100 µM in each case.

Turning to `O=c1cc(-c2ccc(O)cc2)oc2cc(O[C@@H]3O[C@H](CO)[C@@H](O)[C@H](O)[C@H]3O)cc(O)c12`, the TGI with SK-MEL-28 melanoma, in the assay with PC-3 prostate, in the assay on NCI-H522 lung, with NCI-H23 lung, with HL-60(TB) leukemia and in the assay on SNB-75 CNS was above 100 µM in each case. For the same molecule, the TGI in the assay with MDA-MB-231 breast, in the assay on CCRF-CEM leukemia, in the assay with HOP-62 NSCLC and with HT29 colon was above 100 µM each time.

Turning to `O=C1C2=C(C(=O)c3cnccc31)C1C=CC2CC1` (stereo not drawn), the GI50 with SK-MEL-28 melanoma was 2.02 µM; in the assay with PC-3 prostate, 2.15 µM; with NCI-H522 lung it was 1.96 µM; in the assay with NCI-H23 lung, 1.82 µM; in the assay with HL-60(TB) leukemia, 1.25 µM; with SNB-75 CNS, 1.34 µM. Further, the GI50 in the assay on MDA-MB-231 breast is 2.45 µM; in the assay with CCRF-CEM leukemia it was 0.66 µM; in the assay with HOP-62 NSCLC, 2.91 µM; in the assay with HT29 colon it was 2.58 µM. Further, the TGI in the assay with SK-MEL-28 melanoma was determined as 3.69 µM; in the assay on NCI-H522 lung it was 4.1 µM; in the assay on NCI-H23 lung, 4.02 µM; with HL-60(TB) leukemia it was 4.63 µM; with SNB-75 CNS, 2.73 µM; with MDA-MB-231 breast it was 7.61 µM. Besides, the figures for the TGI in the assay on HOP-62 NSCLC and in the assay with HT29 colon were 6.6 µM and 5.7 µM, respectively.

As to `CC1CN(S(=O)(=O)c2oc(-c3ccc(Cl)cc3)nc2C#N)CC(C)O1` (stereo not drawn), the GI50 with SK-MEL-28 melanoma was 1.81 µM; in the assay with PC-3 prostate it was 1.97 µM; in the assay with NCI-H522 lung, 0.945 µM; with NCI-H23 lung, 3.99 µM; with HL-60(TB) leukemia it was 2.09 µM; in the assay on SNB-75 CNS, 10.6 µM. Further, the GI50 is 1.91 µM in the assay on MDA-MB-231 breast, 0.505 µM in the assay on CCRF-CEM leukemia, 14 µM in the assay on HOP-62 NSCLC and 2.06 µM in the assay on HT29 colon. Moreover, the TGI in the assay on SK-MEL-28 melanoma was found to be 3.38 µM; in the assay with PC-3 prostate, 4.04 µM; in the assay on NCI-H522 lung, 2.79 µM; in the assay on NCI-H23 lung, 15.9 µM; with HL-60(TB) leukemia, 5.84 µM; with SNB-75 CNS it was 22.7 µM. Moreover, the TGI in the assay on MDA-MB-231 breast is 3.8 µM; in the assay on CCRF-CEM leukemia, 4.24 µM; in the assay with HOP-62 NSCLC it was 42.2 µM; with HT29 colon, 4.11 µM.

As for `Cc1cc(Cl)ccc1OCC(=O)Nc1nc(N)nc(N)n1`, the TGI in the assay with SK-MEL-28 melanoma, with PC-3 prostate, with NCI-H522 lung, in the assay with NCI-H23 lung, in the assay on HL-60(TB) leukemia and in the assay on SNB-75 CNS was above 100 µM each time. For the same molecule, the TGI in the assay on MDA-MB-231 breast, in the assay with CCRF-CEM leukemia, in the assay with HOP-62 NSCLC and in the assay with HT29 colon was above 100 µM in each case.
